From US20240277727A1, “CHARGED ION CHANNEL BLOCKERS AND METHODS FOR USE” (Nocion Therapeutics, Inc., priority 2019, published 2024)

Legend:
[1] = PAMPA membrane permeability assay; format: in vitro ADME; settings: pH 7.4, GIT lipid, 4 hours incubation
Procedure: The PAMPA assay (pION, Inc., Woburn MA) was used to determine the ability of compounds of the invention to cross an artificial lipid membrane by passive diffusion. Test compounds were dissolved in DMSO (10 mM) and diluted 200-fold in buffer (pION Inc., pH 7.4) to provide 50 μM stock solutions. Buffer (150 μL) was added to a UV blank plate and stock solutions (150 μL) were transferred to a UV reference plate. The blank and reference spectrum were read using a spectrophotometer. Stock solutions (200 μL) were added to the donor plate of the PAMPA sandwich plate and an accept plate painted with GIT lipid (pION Inc, 5 μL) was placed on top. Buffer (200 μL) was added to the acceptor plate and the PAMPA sandwich plate was incubated for 4 hours. Aliquots (150 μL) from the acceptor plate were added to a UV plate and read as acceptor spectrum. Aliquots (150 μL) of the donor solutions were added to a UV analysis plate and read as donor spectrum. The permeability coefficient of test compounds was calculated using PAMPA Explorer™ software (version 3.5.0.4) based on the AUC of the reference plate, the donor plate, and the acceptor plate.

NaV1.7 [2] = molecular target: T1, NaV1.7 (Homo sapiens, UniProt Q15858); experiment: Intracellular (internal block) inhibition of NaV1.7 current, whole cell patch clamp; format: cell-based; settings: compound in internal solution; for inhibition at 1 µM: read-out: Nav 1.7 Intracellular Inhibition
T1 construct: expressed in transfected cells; tetracycline-inducible, kept under hygromycin and blasticidin selection
Procedure: (§1) NaV1.7 was expressed upon induction with tetracycline. Cells were cultured in DMEM containing 10% dialyzed Fetal Bovine Serum (VWR, Radnor, PA), 1% Glutamax (VWR, Radnor, PA), 1% Penicillin-Streptomycin (VWR, Radnor, PA), 100 mg/L Hygromycin (Thermo Fisher Scientific, Waltham, MA and 5 mg/L Blasticidin (Alfa Aesar, Haverhill, MA). Cells were grown and maintained at 37° C. in a humidified environment containing 10% CO2 in air. Cells were detached from the culture flask for passage and harvested using 0.05% Trypsin-EDTA (Thermo Fisher Scientific, Waltham, MA). To induce NaV1.7, cells were induced with tetracycline (0.1-1 μg/mL, IBI Scientific, Peosta, IA) the day before recording and plated onto 24-well plates. Cells were washed with DPBS (VWR, Radnor, PA), trypsinized and then triturated five times in 10 mL of growth media to break apart cell aggregates. For one 24-well plate, 2 mL of cell suspension was mixed with 23 mL of fresh growth media and 0.1-1 μg/mL tetracycline added. 1 ml of mixed media with cells was then added to each well of a 24-well plate, with a 12 mm coverslip already placed in the bottom of the well. Cells were then incubated in 37° C. and 10% CO2 overnight.
The intracellular solution contained the following (in mM) CsCl 135, NaCl 10, EGTA 10, HEPES 10, MgCl2 2, adjusted to pH 7.2 with CsOH. The external solution was a normal Ringer solution containing (in mM) NaCl 155, HEPES 10, glucose 10, KCl 3.5, CaCl2 1.5, MgCl2 1 adjusted to pH 7.4 with NaOH. CsCl is from Alfa Aesar, Haverhill, MA. All other chemicals are from Sigma-Aldrich, St. Louis, MO. In order to test the degree of internal block by test compounds the compounds were dissolved in internal solution at the indicated test concentration. […] In order to test the degree of external block by test compounds the compounds were dissolved in external solution at the indicated test concentration.
18-24 hours after cells were induced with tetracycline, coverslips were placed into a chamber filled with Normal Ringer solution at room temperature and the chamber placed on a microscope. Pipettes were pulled from borosilicate glass on a P97 puller (Sutter Instrument, Novato, CA) and polished with a MF-830 Microforge (Narishige International USA, Inc, Amityville, NY) to have a resistance of 1.5-2.5 MΩ when filled with CsCl internal solution at room temperature. Healthy cells (those that are round and translucent with no visible blemishes) were chosen for seal formation. A seal was formed between the pipette and the cell, and a brief pulse of suction was used to “break in” and establish the whole-cell configuration. The membrane potential was held at −100 mV before the voltage protocol began. Only cells with series resistance between 1.5-5 MΩ were retained for analysis. The voltage protocol was as follows: Cells were held at −100 mV for 12 ms followed by a hyperpolarizing step to −105 mV for 12 ms to monitor the leak. Cells were then stepped back to −100 mV for 40 ms. Cells were then depolarized to −20 mV for 10 ms and then returned to −100 mV for 26 ms.
Once the recording was started, the voltage protocol was run at 30 second intervals for 5 minutes to get a stable baseline. This was followed by four 30-second periods of 5 Hz stimulation of the same voltage protocol separated by 1 minute of rest which was then followed by 0.33 Hz stimulation after the last train. Currents were recorded using PatchMaster software with Heka EPC10 (HEKA Electronics, Lambrecht, Germany). Only cells with inward current amplitudes at −20 m V between 400 pA and 4 nA were accepted. In addition, cells having leak currents greater than 10% of their current amplitudes were discarded.
(§2) The data was plotted using the Patchmaster software (HEKA Electronics, Lambrecht, Germany) and analyzed by plotting the minimum current during the voltage step to −20 m V (peak inward current) as a function of time. […]

NaV1.7 [3] = molecular target: T1, NaV1.7; experiment: Extracellular (external block) inhibition of NaV1.7 current, whole cell patch clamp; format: cell-based; settings: compound in external solution
Procedure: as §1, with “For one 24-well plate, 2 mL of cell suspension was mixed with 23 mL of fresh growth media and 0.1-1 μg/mL tetracycline added. 1 ml of mixed media with cells was then added to each well of a 24-well plate, with a 12 mm coverslip already placed in the bottom of the well. Cells were then incubated in 37° C. and 10% CO2 overnight.” left out
Once the recording was started, the voltage protocol was run at 30 second intervals for 5 minutes to get a stable baseline. […] Currents were recorded using PatchMaster software with Heka EPC10 (HEKA Electronics, Lambrecht, Germany). […]
as §2

T1 sequence (Q15858 whole entry): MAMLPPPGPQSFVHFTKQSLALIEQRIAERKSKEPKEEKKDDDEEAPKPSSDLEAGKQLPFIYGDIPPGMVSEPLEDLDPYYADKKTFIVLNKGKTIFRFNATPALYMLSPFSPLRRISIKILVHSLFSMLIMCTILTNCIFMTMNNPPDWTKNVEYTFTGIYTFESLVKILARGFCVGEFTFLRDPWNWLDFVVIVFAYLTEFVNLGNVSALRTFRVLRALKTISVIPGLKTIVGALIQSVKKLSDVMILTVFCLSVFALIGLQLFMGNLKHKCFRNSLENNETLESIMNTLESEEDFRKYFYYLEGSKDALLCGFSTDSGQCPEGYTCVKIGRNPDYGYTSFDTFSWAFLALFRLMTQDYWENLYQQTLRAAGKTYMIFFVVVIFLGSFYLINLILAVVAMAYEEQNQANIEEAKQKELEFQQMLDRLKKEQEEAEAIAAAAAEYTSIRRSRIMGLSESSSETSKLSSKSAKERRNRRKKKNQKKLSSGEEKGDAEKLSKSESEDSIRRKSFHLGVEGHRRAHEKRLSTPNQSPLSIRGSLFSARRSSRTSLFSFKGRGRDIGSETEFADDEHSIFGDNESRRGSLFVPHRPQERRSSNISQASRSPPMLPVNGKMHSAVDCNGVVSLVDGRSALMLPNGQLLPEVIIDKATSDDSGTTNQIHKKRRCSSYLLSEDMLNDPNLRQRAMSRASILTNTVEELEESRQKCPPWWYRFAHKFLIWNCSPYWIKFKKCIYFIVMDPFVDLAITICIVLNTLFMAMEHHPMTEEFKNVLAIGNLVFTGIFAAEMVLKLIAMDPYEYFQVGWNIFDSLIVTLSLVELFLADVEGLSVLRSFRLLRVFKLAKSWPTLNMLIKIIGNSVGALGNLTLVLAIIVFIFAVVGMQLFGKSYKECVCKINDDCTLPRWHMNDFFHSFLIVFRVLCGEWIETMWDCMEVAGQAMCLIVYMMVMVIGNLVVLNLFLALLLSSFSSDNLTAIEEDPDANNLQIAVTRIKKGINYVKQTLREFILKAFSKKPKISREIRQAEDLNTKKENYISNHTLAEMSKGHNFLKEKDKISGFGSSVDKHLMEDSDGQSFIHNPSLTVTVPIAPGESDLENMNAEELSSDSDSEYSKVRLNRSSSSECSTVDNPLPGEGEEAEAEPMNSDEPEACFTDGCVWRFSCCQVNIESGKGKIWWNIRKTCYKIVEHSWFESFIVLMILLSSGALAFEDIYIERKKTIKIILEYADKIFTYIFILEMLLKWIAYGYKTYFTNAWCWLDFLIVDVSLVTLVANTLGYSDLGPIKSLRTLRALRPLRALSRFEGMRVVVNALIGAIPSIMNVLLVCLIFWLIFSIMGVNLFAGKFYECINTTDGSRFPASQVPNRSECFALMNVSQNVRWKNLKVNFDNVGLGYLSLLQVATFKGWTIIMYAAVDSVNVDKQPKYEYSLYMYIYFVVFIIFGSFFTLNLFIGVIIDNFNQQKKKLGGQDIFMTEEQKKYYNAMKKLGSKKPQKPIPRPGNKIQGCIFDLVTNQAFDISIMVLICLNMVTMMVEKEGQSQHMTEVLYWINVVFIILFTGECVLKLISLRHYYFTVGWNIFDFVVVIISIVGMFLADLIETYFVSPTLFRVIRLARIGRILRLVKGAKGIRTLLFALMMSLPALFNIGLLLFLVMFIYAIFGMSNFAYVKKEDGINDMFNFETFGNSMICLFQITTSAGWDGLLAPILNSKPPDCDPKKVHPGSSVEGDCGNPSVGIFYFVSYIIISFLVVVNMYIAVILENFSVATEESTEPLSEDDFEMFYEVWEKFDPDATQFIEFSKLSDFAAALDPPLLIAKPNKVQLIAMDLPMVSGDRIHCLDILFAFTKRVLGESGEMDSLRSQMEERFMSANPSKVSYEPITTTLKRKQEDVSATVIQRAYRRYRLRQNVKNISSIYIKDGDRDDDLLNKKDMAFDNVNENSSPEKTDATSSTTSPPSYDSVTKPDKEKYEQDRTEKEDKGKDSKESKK

Structure (SMILES)	PAMPA (10^−6 cm/s) [1]	inhibition at 1 µM (NaV1.7 [2])	inhibition at 3 µM (NaV1.7 [3]; test concentration of 3 μM)	Papp at 4 h, 50 µM ([1]; PAMPA)	inhibition at 3 µM (NaV1.7 [2]; test concentration of 3 μM)	inhibition at 1 µM (NaV1.7 [3]; test concentration of 1 μM)
COC(=O)c1scc(C)c1NC(=O)C[N+]1(Cc2ccccc2)CCCC1.[Br-] [A]	+ (“+” (<0.1 10^−6 cm/s))	40 to 70%				
COC(=O)c1scc(C)c1NC(=O)C[N+]1(Cc2ccccc2)CCCCC1.[Br-] [B]	++ (“++” (0.1-2.0 10^−6 cm/s))	40 to 70%				
CCCOC(=O)c1scc(C)c1NC(=O)C[N+]1(Cc2ccccc2)CCCCCC1.[Br-] [C]	+ (“+” (<0.1 10^−6 cm/s))	> 90%				
COC(=O)c1scc(C)c1NC(=O)C[N+]1(Cc2ccccc2)CCCCCC1.[Br-] [Compound-31, 1-benzyl-1-(2-((2-(methoxycarbonyl)-4-methylthiophen-3-yl)amino)-2-oxoethyl) azepan-1-ium bromide]	++ (“++” (0.1-2.0 10^−6 cm/s))	70 to 90%	< 40%	0.4 ×10⁻⁶ cm/s	> 95%	
CCOC(=O)c1scc(C)c1NC(=O)C[N+]1(Cc2ccccc2)CCCCCC1.[Br-] [D]	+ (“+” (<0.1 10^−6 cm/s))	> 90%				< 40%
Cc1csc(C(=O)OC(C)C)c1NC(=O)C[N+]1(Cc2ccccc2)CCCCCC1.[Br-] [E]	++ (“++” (0.1-2.0 10^−6 cm/s))	70 to 90%				
CC[N+]1(CC(=O)Nc2c(C)csc2C(=O)OC)CCCC(c2ccccc2)C1.[I-] (stereo not shown) [F]	+ (“+” (<0.1 10^−6 cm/s))	70 to 90%				
CCC(C(=O)Nc1c(C)csc1C(=O)OC)[N+]1(Cc2ccccc2)CCCCC1.[Br-] (stereo not shown) [G]	+ (“+” (<0.1 10^−6 cm/s))	40 to 70%				
Cc1csc(C)c1NC(=O)C[N+]1(Cc2ccccc2)CCCCCC1.[Br-] [H]	+ (“+” (<0.1 10^−6 cm/s))	40 to 70%				
